Data published in PMC12419160 (The Journal of Cell Biology, 2025).

Target: T1, PILS-Nir1 (6xHis-tagged LNS2 domain of Nir1) (Homo sapiens, UniProt Q9BZ71)
T1 construct: gene PITPNM3; LNS2 (PILS) domain, residues 609-912 in Methods but 604-912 in Results; TEV-cleavable N-terminal 6xHis tag (pTHT), codon-optimised, expressed in E. coli BL21(DE3) RIPL
T1 sequence (Q9BZ71 609-912): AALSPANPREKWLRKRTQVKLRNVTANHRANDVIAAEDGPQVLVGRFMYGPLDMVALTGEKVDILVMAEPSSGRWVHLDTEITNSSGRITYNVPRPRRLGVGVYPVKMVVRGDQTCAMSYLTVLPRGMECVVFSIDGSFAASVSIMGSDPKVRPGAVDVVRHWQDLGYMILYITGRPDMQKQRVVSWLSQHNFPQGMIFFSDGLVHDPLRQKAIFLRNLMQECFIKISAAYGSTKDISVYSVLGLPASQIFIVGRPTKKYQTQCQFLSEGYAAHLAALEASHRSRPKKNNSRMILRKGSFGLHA
Assay: liposome cosedimentation, SDS-PAGE densitometry
Format: binding
Details: 20 mol% PA / 80 mol% PC liposomes, 20 mM Tris pH 7.5, 150 mM NaCl; one-site fit with background; 95% C.I. 110.1–789.9 µM

phosphatidic acid [PA]
Kd: 422 µM
